From patent publication US7425579B2, “Methods for inhibiting activity of polyamine transporters” (Universite Laval, priority 1998, dated 2008)
Like-named read-outs stand apart in the source and are kept apart here.

Test system: mammalian polyamine carrier
Test: Determination of polyamine uptake activity: inhibition of diamine and polyamine transport in T-47D cells
Assay type: cell-based, human
Settings: for Ki: mean±SD; for Km: substrate itself
Experimental: The rate of diamine and polyamine transport was determined in T-47D and ZR-75-1 cells incubated in serum-free RPMI 1640 medium as previously described (U.S. Pat. No. 6,083,496; Covassin et al. (1999) Bioorg. Med. Chem. Lett. 9, 1709-1714), using 20 μM [^3H]putrescine (179 Ci/mol), 5 μM [^3H]spermidine (246 Ci/mol) and 3 μM [^14C]spermine (300-400 mCi/mol) respectively, as substrates for a 20-min assay period. Uptake activity was expressed per amount of DNA as fluorometrically determined using 3,5-diaminobenzoic acid (Simard et al. (1990) Endocrinology 126, 3223-3231). Kinetic parameters of polyamine transport inhibition for the transport antagonists were determined by Lineweaver-Burke analysis of uptake activity in the presence of 0.1 μM [^3H]putrescine, 0.03 μM [^3H]spermidine, and 0.01 μM [^14C]spermine plus increasing concentrations of nonradioactive substrate. For competitive inhibitors, Ki values were estimated by iterative curve fitting for sigmoidal equations describing transport rates in the presence of increasing concentrations of antagonist, using the Cheng-Prusoff equation for competitive inhibition (U.S. Pat. No. 6,083,496).
The ability of BSD and BNSD compounds to inhibit uptake of the main natural substrates of the mammalian polyamine carrier, namely putrescine, spermidine and spermine, was evaluated using T-47D human breast cancer cells (Table 1).
Data are presented as the mean±SD of at least two independent determinations of IC50 values, each based on triplicate determinations of uptake velocity at increasing inhibitor concentrations.
The potency of the polyamines and their xylylated dimers as competitive inhibitors of spermidine transport was evaluated in the T-47D human breast cancer cell line (Table 2).

[1] = T-47D breast cancer cells, read-out: Ki, inhibition of [3H]putrescine uptake
[2] = T-47D breast cancer cells, read-out: Ki, inhibition of [3H]spermidine uptake
[3] = T-47D breast cancer cells, read-out: Ki, inhibition of [14C]spermine uptake
[4] = T-47D human breast cancer cells, calculated from IC50, read-out: Ki for the inhibition of spermidine transport (Table 2)

Structure (SMILES) | Ki [1] | Ki [2] | Ki [3] | fold lower apparent Ki for spermidine uptake inhibition relative to the spermine monomer (T-47D cells) | Ki [4] | Km (T-47D breast cancer cells, read-out: Km for [3H]putrescine uptake) | Km (T-47D breast cancer cells, read-out: Km for [14C]spermine uptake)
NCCCN(CCCN)CCN(CCCN)CCCN [18a] | 1200 ± 200 nM | 17300 ± 1400 nM | 20400 ± 6900 nM |  |  |  | 
NCCCCN(CCCN)CCN(CCCN)CCCCN [18b] | 650 ± 70 nM | 3000 ± 500 nM | 5900 ± 1100 nM |  |  |  | 
NCCCN(CCCN)CCCCN(CCCN)CCCN [20a] | 720 ± 200 nM | 4900 ± 100 nM | 4300 ± 700 nM |  |  |  | 
NCCCCN(CCCN)CCCCN(CCCN)CCCCN [20b] | 520 ± 60 nM | 2400 ± 400 nM | 6200 ± 600 nM |  |  |  | 
NCCCN(CCCN)CCCCCN(CCCN)CCCN [21a] | 540 ± 110 nM | 3100 ± 500 nM | 2600 ± 700 nM |  |  |  | 
NCCCCN(CCCN)CCCCCN(CCCN)CCCCN [21b] | 570 ± 100 nM | 830 ± 80 nM | 8000 ± 1100 nM |  |  |  | 
NCCCN(CCCN)CCCCCCN(CCCN)CCCN [22a] | 720 ± 180 nM | 2400 ± 300 nM | 820 ± 100 nM |  |  |  | 
NCCCCN(CCCN)CCCCCCN(CCCN)CCCCN [22b] | 910 ± 110 nM | 690 ± 160 nM | 6300 ± 800 nM |  |  |  | 
NCCCN(CCCN)CCCCCCCCN(CCCN)CCCN [23a] | 660 ± 60 nM | 7500 ± 1600 nM | 7000 ± 1000 nM |  |  |  | 
NCCCCN(CCCN)CCCCCCCCN(CCCN)CCCCN [23b] | 440 ± 70 nM | 3000 ± 200 nM | 3600 ± 700 nM |  |  |  | 
NCCCN(CCCN)CCCCCCCCCCN(CCCN)CCCN [24a] | 1600 ± 400 nM | 1500 ± 200 nM | 2400 ± 700 nM |  |  |  | 
NCCCCN(CCCN)CCCCCCCCCCN(CCCN)CCCCN [24b] | 140 ± 10 nM | 1200 ± 200 nM | 1900 ± 300 nM |  |  |  | 
NCCCN(C/C=C/CN(CCCN)CCCN)CCCN [25a] | 100 ± 10 nM | 1800 ± 100 nM | 1500 ± 100 nM |  |  |  | 
NCCCCN(C/C=C/CN(CCCN)CCCCN)CCCN [25b] | 270 ± 40 nM | 2000 ± 500 nM | 1600 ± 200 nM |  |  |  | 
NCCCN(CC#CCN(CCCN)CCCN)CCCN [26a] | 2600 ± 400 nM | 25600 ± 4000 nM | 12800 ± 2200 nM |  |  |  | 
NCCCCN(CC#CCN(CCCN)CCCCN)CCCN [26b] | 1900 ± 400 nM | 16900 ± 2000 nM | 27700 ± 3200 nM |  |  |  | 
NCCCN(CCCN)Cc1cccc(CN(CCCN)CCCN)c1 [27a] | 640 ± 80 nM | 3000 ± 500 nM | 5700 ± 1300 nM |  |  |  | 
NCCCCN(CCCN)Cc1cccc(CN(CCCN)CCCCN)c1 [27b] | 190 ± 50 nM | 1600 ± 100 nM | 2400 ± 300 nM |  |  |  | 
NCCCNCCCCN(CCCN)Cc1ccc(CN(CCCN)CCCCNCCCN)cc1 [BSM-X] |  |  |  | 2 fold | 1100 ± 100 nM |  | 
NCCCNCCCC(NCCCN)C(=O)NCCSSCCNC(=O)C(CCCNCCCN)NCCCN (centres unmarked) [DESC, 2,2′-dithiobis(N-ethyl-spermine-5-carboxamide), reference compound] | 3100 ± 400 nM | 12600 ± 1400 nM | 15900 ± 4000 nM |  |  |  | 
NCCCCN [Putrescine, 1,4-diaminobutane, reference compound] |  |  |  |  | > 500000 nM | 7.4 ± 1.1 µM | 
NCCCNCCCCNCCCN [Spermine, reference compound] | 650 ± 120 nM | 920 ± 80 nM |  |  | 2100 ± 200 nM |  | 2.7 ± 0.4 µM
